Measured values: patent publication US20230149919A1, “CASSETTE FOR PRESERVATION OF NATURAL AND BIOENGINEERED TISSUES” (TISSUE TESTING TECHNOLOGIES LLC, priority 2021, published 2023)

System: Epiderm construct
Assay: Viability of constructs with additives in culture medium before and after vitrification
Assay type: cell-based, Human
Conditions: added to culture medium before and after vitrification, αT and QVD together
Procedure: Resazurin Assay: Was used to measure the metabolic activity and has the advantage of being non-toxic so constructs can be assessed before and several times after treatment. Resazurin dye (alamarBlue) was used to assess cell viability by measuring the oxidation/reduction reactions that take place within cells. The dye is added directly to the culture wells and the plates were incubated for 3 hours at 37° C. Upon reduction, the dye changes color and this was measured and quantified using a fluorescent microplate reader at an excitation wavelength of 544 nm and an emission wavelength of 590 nm.
The initial vitrification protocol was one that was developed for use with vein segments and rings. The process uses a 6 step (15-minute incubation) protocol to add the cryoprotectant (CPA) solution into the construct. The insert is then left in a glass scintillation vial in 1.5 mL vitrification solution with 0.3 mL solution inside the insert. The vials are cooled rapidly to −100° C. then slowly cooled to −135° C. where they are stored until rewarming. During rewarming, the samples are warmed slowly to −100° C. then rapidly to room temperature. The vitrification solution is removed using 7 sequential removal steps at 15 minutes each (FIG. 4, original protocol). Several changes were made to this protocol to produce better and sustainable viability for the Epiderm construct.
A series of changes were made to how the vitrification solution was loaded and unloaded from the construct. These changes included shorter incubation steps (5 minutes instead of 15), using a lower concentration of cryoprotectant to load the full-strength vitrification solution into the construct and also a more mechanical change that involved dilution of the full strength vitrification solution to half its concentration by a simple dilution step as opposed to removal from one solution to the next. This shortened the amount of time that the construct was exposed to the full-strength vitrification solution reducing potential cytotoxicity caused by exposure to the vitrification solution (modified protocol).
The arrived at protocol starts with an overnight incubation with αT and QVD. The next day, the constructs are vitrified using the 6-step addition protocol, 5 minutes each step, to add the cryoprotectant (CPA) solution into the construct. The insert is then left in the final vitrification solution with 0.3 mL solution inside the insert. The vials are cooled rapidly to −100° C. then slowly cooled to −135° C. where they are stored until rewarming. During rewarming, the samples are warmed slowly to −100° C. then rapidly to room temperature. The vitrification solution is removed using 7 sequential removal steps at 5 minutes each. […]

| Structure (SMILES) | Effect of additive on construct viability | Effect of additive on construct viability (listed as QVD) | Effect of additive on construct viability (listed as αT) |
| --- | --- | --- | --- |
| CC(C)[C@H](NC(=O)c1ccc2ccccc2n1)C(=O)N[C@@H](CC(=O)O)C(=O)COc1c(F)cccc1F [Q-VD-OPH, quinoline-Val-Asp-difluorophenoxymethyl ketone] | improved viability | significant improvement |  |
| Cc1c(C)c2c(c(C)c1O)CC[C@@](C)(CCC[C@H](C)CCC[C@H](C)CCCC(C)C)O2 [α-tocopherol] | improved viability |  | significant improvement |
